Experimental data: US6825170B2, “6-O-acyl ketolide antibacterials” (Ortho-McNeil Pharmaceutical, Inc., priority 2001, dated 2004)
In brackets after ≈: the same amount, converted by molar mass.

Assays:
Test in all cases: MIC, microdilution broth method (NCCLS)
Format in all cases: cell-based
Conditions in all cases: 35° C., 16-20 hours
H. influenzae ATCC49247 = test system: H. influenzae ATCC49247
Description: (§1) Minimal inhibitory concentration (MIC) has been an indicator of in vitro antibacterial activity widely used in the art. The in vitro antimicrobial activity of the compounds was determined by the microdilution broth method following the test method from the National Committee for Clinical Laboratory Standards (NCCLS). This method is described in the NCCLS Document M7-A4, Vol.17, No.2, “Methods for Dilution Antimicrobial Susceptibility Test for Bacteria that Grow Aerobically—Fourth Edition”, which is incorporated herein by reference.
(§2) In this method two-fold serial dilutions of drug in cation adjusted Mueller-Hinton broth are added to wells in microdilution trays. The test organisms are prepared by adjusting the turbidity of actively growing broth cultures so that the final concentration of test organism after it is added to the wells is approximately 5×10^4 CFU/well.
(§3) Following inoculation of the microdilution trays, the trays are incubated at 35° C. for 16-20 hours and then read. […] The amount of growth in the wells containing the test compound is compared with the amount of growth in the growth-control wells (no test compound) used in each tray. As set forth in Table 1, compounds of the present invention were tested against a variety of Gram positive and Gram negative pathogenic bacteria resulting in a range of activities depending on the organism tested.

E. faecalis ATCC29212 = test system: E. faecalis ATCC29212
Description: as §1, §2, §3

S. pneumoniae ATCC49619 = test system: S. pneumoniae ATCC49619
Description: as §1, §2, §3

S. aureus ATCC29213 = test system: S. aureus ATCC29213
Description: as §1, §2, §3

MIC (E: H. influenzae ATCC49247) (H. influenzae ATCC49247) | MIC (C: E. faecalis ATCC29212) (E. faecalis ATCC29212) | MIC (D: S. pneumoniae ATCC49619) (S. pneumoniae ATCC49619) | MIC (B: S. aureus ATCC29213) (S. aureus ATCC29213) | SMILES
1 µg/mL (≈ 1.25 µM) | 0.12 µg/mL (≈ 0.15 µM) | 0.03 µg/mL (≈ 0.0375 µM) | 0.25 µg/mL (≈ 0.312 µM) | CCC1OC(=O)C(C)C(=O)C(C)C(OC2OC(C)CC(N(C)C)C2O)C(C)(OC(=O)OCCCn2cnc3ccccc32)CC(C)C(=O)C(C)C2NC(=O)OC12C (stereo not shown) [Compound 159]
1 µg/mL (≈ 1.17 µM) | 0.06 µg/mL (≈ 0.0702 µM) | 0.03 µg/mL (≈ 0.0351 µM) | 0.12 µg/mL (≈ 0.14 µM) | CCC1OC(=O)C(C)C(=O)C(C)C(OC2OC(C)CC(N(C)C)C2O)C(C)(OC(=O)OCC(F)=Cc2ccc(-c3ncccn3)cc2)CC(C)C(=O)C(C)C2NC(=O)OC12C (stereo not shown) [Compound 160]
0.5 µg/mL (≈ 0.585 µM) | 0.06 µg/mL (≈ 0.0702 µM) | ≦0.015 μg/mL | 0.12 µg/mL (≈ 0.14 µM) | CCC1OC(=O)C(C)C(=O)C(C)C(OC2OC(C)CC(N(C)C)C2O)C(C)(OC(=O)OCC(F)=Cc2ccc(-c3cccnn3)cc2)CC(C)C(=O)C(C)C2NC(=O)OC12C (stereo not shown) [Compound 168]
2 µg/mL (≈ 2.34 µM) | 0.06 µg/mL (≈ 0.0702 µM) | ≦0.015 μg/mL | 0.12 µg/mL (≈ 0.14 µM) | CCC1OC(=O)C(C)C(=O)C(C)C(OC2OC(C)CC(N(C)C)C2O)C(C)(OC(=O)OCC=C(F)c2ccc(-c3ncccn3)cc2)CC(C)C(=O)C(C)C2NC(=O)OC12C (stereo not shown) [Compound 224]
2 µg/mL (≈ 2.42 µM) | 0.12 µg/mL (≈ 0.145 µM) | 0.03 µg/mL (≈ 0.0363 µM) | 0.25 µg/mL (≈ 0.303 µM) | CCC1OC(=O)C(C)C(=O)C(C)C(OC2OC(C)CC(N(C)C)C2O)C(C)(OC(=O)NOCc2ccc(-c3cnccn3)cc2)CC(C)C(=O)C(C)C2NC(=O)OC12C (stereo not shown) [Compound 601]
2 µg/mL (≈ 2.35 µM) | 0.12 µg/mL (≈ 0.141 µM) | 0.03 µg/mL (≈ 0.0353 µM) | 0.25 µg/mL (≈ 0.294 µM) | CCC1OC(=O)C(C)C(=O)C(C)C(OC2OC(C)CC(N(C)C)C2O)C(C)(OC(=O)NOCC#Cc2ccc(-c3cnccn3)cc2)CC(C)C(=O)C(C)C2NC(=O)OC12C (stereo not shown) [Compound 603]
1 µg/mL (≈ 1.22 µM) | 0.06 µg/mL (≈ 0.0729 µM) | 0.03 µg/mL (≈ 0.0365 µM) | 0.25 µg/mL (≈ 0.304 µM) | CC[C@H]1OC(=O)[C@H](C)C(=O)[C@H](C)[C@@H](O[C@@H]2O[C@H](C)C[C@H](N(C)C)[C@H]2O)[C@](C)(OC(=O)NOCC#Cc2cnc3ccccc3c2)C[C@@H](C)C(=O)[C@H](C)[C@H]2NC(=O)O[C@@]21C [Compound 618]
2 µg/mL (≈ 2.47 µM) | 0.5 µg/mL (≈ 0.617 µM) | 0.03 µg/mL (≈ 0.037 µM) | 1 µg/mL (≈ 1.23 µM) | CC[C@H]1OC(=O)[C@H](C)C(=O)[C@H](C)[C@@H](O[C@@H]2O[C@H](C)C[C@H](N(C)C)[C@H]2O)[C@](C)(OC(=O)NNS(=O)(=O)c2ccc(C)cc2)C[C@@H](C)C(=O)[C@H](C)[C@H]2NC(=O)O[C@@]21C [Compound 809]
4 µg/mL (≈ 4.69 µM) | 0.5 µg/mL (≈ 0.586 µM) | 0.06 µg/mL (≈ 0.0703 µM) | 2 µg/mL (≈ 2.34 µM) | CC[C@H]1OC(=O)[C@H](C)C(=O)[C@H](C)[C@@H](O[C@@H]2O[C@H](C)C[C@H](N(C)C)[C@H]2O)[C@](C)(OC(=O)NN(C(C)=O)S(=O)(=O)c2ccc(C)cc2)C[C@@H](C)C(=O)[C@H](C)[C@H]2NC(=O)O[C@@]21C [Compound 810]
4 µg/mL (≈ 4.63 µM) | 0.5 µg/mL (≈ 0.579 µM) | 0.06 µg/mL (≈ 0.0695 µM) | 2 µg/mL (≈ 2.32 µM) | CC[C@H]1OC(=O)[C@H](C)C(=O)[C@H](C)[C@@H](O[C@@H]2O[C@H](C)C[C@H](N(C)C)[C@H]2O)[C@](C)(OC(=O)NNS(=O)(=O)c2ccc(-n3cccn3)cc2)C[C@@H](C)C(=O)[C@H](C)[C@H]2NC(=O)O[C@@]21C [Compound 811]

Further lines, the compound ahead of its results:

SMILES | MIC (E: H. influenzae ATCC49247) (H. influenzae ATCC49247) | MIC (C: E. faecalis ATCC29212) (E. faecalis ATCC29212) | MIC (D: S. pneumoniae ATCC49619) (S. pneumoniae ATCC49619) | MIC (B: S. aureus ATCC29213) (S. aureus ATCC29213)
CCC1OC(=O)C(C)C(=O)C(C)C(OC2OC(C)CC(N(C)C)C2O)C(C)(OC(=O)OCC=Cc2ccc(-c3cnccn3)s2)CC(C)C(=O)C(C)C2NC(=O)OC12C (stereo not shown) [Compound 65] | 1 µg/mL (≈ 1.19 µM) | 0.12 µg/mL (≈ 0.142 µM) | 0.03 µg/mL (≈ 0.0356 µM) | 0.25 µg/mL (≈ 0.297 µM)
CCC1OC(=O)C(C)C(=O)C(C)C(OC2OC(C)CC(N(C)C)C2O)C(C)(OC(=O)OCC=Cc2cnc(-c3ccccc3)nc2)CC(C)C(=O)C(C)C2NC(=O)OC12C (stereo not shown) [Compound 72] | 2 µg/mL (≈ 2.39 µM) | 0.06 µg/mL (≈ 0.0717 µM) | 0.03 µg/mL (≈ 0.0358 µM) | 0.25 µg/mL (≈ 0.299 µM)
CCC1OC(=O)C(C)C(=O)C(C)C(OC2OC(C)CC(N(C)C)C2O)C(C)(OC(=O)OCC=Cc2ccc(-c3cccs3)s2)CC(C)C(=O)C(C)C2NC(=O)OC12C (stereo not shown) [Compound 73] | 16 µg/mL (≈ 18.9 µM) | 1 µg/mL (≈ 1.18 µM) | 0.25 µg/mL (≈ 0.295 µM) | 2 µg/mL (≈ 2.36 µM)
CCC1OC(=O)C(C)C(=O)C(C)C(OC2OC(C)CC(N(C)C)C2O)C(C)(OC(=O)OCC=C(C)c2ccc(-c3ncccn3)cc2)CC(C)C(=O)C(C)C2NC(=O)OC12C (stereo not shown) [Compound 76] | 1 µg/mL (≈ 1.18 µM) | 0.12 µg/mL (≈ 0.141 µM) | 0.03 µg/mL (≈ 0.0353 µM) | 0.25 µg/mL (≈ 0.294 µM)
CCC1OC(=O)C(C)C(=O)C(C)C(OC2OC(C)CC(N(C)C)C2O)C(C)(OC(=O)OCC#Cc2cc(-c3ccccn3)no2)CC(C)C(=O)C(C)C2NC(=O)OC12C (stereo not shown) [Compound 122] | 1 µg/mL (≈ 1.21 µM) | 0.06 µg/mL (≈ 0.0727 µM) | ≦0.015 μg/mL | 0.12 µg/mL (≈ 0.145 µM)
CCC1OC(=O)C(C)C(=O)C(C)C(OC2OC(C)CC(N(C)C)C2O)C(C)(OC(=O)OCCC#Cc2ccc(-c3ncccn3)cc2)CC(C)C(=O)C(C)C2NC(=O)OC12C (stereo not shown) [Compound 137] | 4 µg/mL (≈ 4.71 µM) | 0.12 µg/mL (≈ 0.141 µM) | 0.03 µg/mL (≈ 0.0353 µM) | 0.25 µg/mL (≈ 0.294 µM)
CCC1OC(=O)C(C)C(=O)C(C)C(OC2OC(C)CC(N(C)C)C2O)C(C)(OC(=O)OCCCCc2ccc(-c3ncccn3)cc2)CC(C)C(=O)C(C)C2NC(=O)OC12C (stereo not shown) [Compound 286] | 4 µg/mL (≈ 4.69 µM) | 0.25 µg/mL (≈ 0.293 µM) | 0.06 µg/mL (≈ 0.0703 µM) | 0.25 µg/mL (≈ 0.293 µM)
CC[C@H]1OC(=O)[C@@](C)(F)C(=O)[C@H](C)[C@@H](O[C@@H]2O[C@H](C)C[C@H](N(C)C)[C@H]2O)[C@](C)(OC(=O)NOC/C=C/c2ccc(-c3ncccn3)cc2)C[C@@H](C)C(=O)[C@H](C)[C@H]2NC(=O)O[C@@]21C [Compound 622] | 4 µg/mL (≈ 4.6 µM) | 0.25 µg/mL (≈ 0.287 µM) | 0.03 µg/mL (≈ 0.0345 µM) | 0.25 µg/mL (≈ 0.287 µM)
CC[C@H]1OC(=O)[C@@](C)(F)C(=O)[C@H](C)[C@@H](O[C@@H]2O[C@H](C)C[C@H](N(C)C)[C@H]2O)[C@](C)(OC(=O)NOCC#Cc2cnc3ccccc3c2)C[C@@H](C)C(=O)[C@H](C)[C@H]2NC(=O)O[C@@]21C [Compound 623] | 4 µg/mL (≈ 4.76 µM) | 0.12 µg/mL (≈ 0.143 µM) | 0.03 µg/mL (≈ 0.0357 µM) | 0.25 µg/mL (≈ 0.297 µM)
